For test [1], the system named is myh7 (beta myosin heavy chain). The test is described as follows: Heart mRNA expression of hypertrophy marker myh7 (semi-quantitative PCR). It counts as in vivo, mouse. The conditions noted are these: mdx mice, 50 mg/kg*day, two months; p<0.01. How it is done: Twelve-week-old […] gene pool (wild mice referred to as “C57” in the figures) and […] mdx (mouse model of Duchenne muscular dystrophy, referred to as “mdx” in the figures) male mice, produced at Charles Rivers, were used. Two groups of mdx were chronically exposed per os either to BIO101 (number of mice n=9) or to BIO103 (number of mice n=9) at a dose of 50 mg/kg*day. A group of C57 mice (number of mice n=5) and a group of mdx mice (number of mice n=15) received the vehicle, i.e. no treatment. The animals of all of the groups were tested for their functional capacity (exertion tolerance test) after two months of treatment. The exertion tolerance test consists of measuring the maximum distance travelled (in-toto activity; FIGS. 1A and 1B). […] The extract RNA is quantified by spectrophotometry then the quality thereof is verified and validated with the Experion RNA StdSens Analysis Kit (Bio-Rad). […] Finally, semi-quantitative PCR analysis was carried out using SYBR® Green (Roche), a DNA intercalating agent and a LightCycler® 480 Real Time PCR (Roche) apparatus on 384-well plates. The molecular markers measured are as follows: • CTGF and collagen I: connective tissue growth factor (CTGF) is associated with healing and with many pathological fibrotic processes including DMD (Brigstock 2010; Song Y. 2017). […]

The test system of test [2] is tibialis anterior muscle of C57BL10 mdx mice. The test is described as follows: Histological study of tibialis anterior muscle stained with Sirius Red (fibrotic area). Format: in vivo, mouse. The settings on record: 50 mg/kg*day, two months, p=0.0709. How it is done:
Twelve-week-old C57BL10 gene pool (wild mice referred to as “C57” in the figures) and C57BL10 mdx (mouse model of Duchenne muscular dystrophy, referred to as “mdx” in the figures) male mice, produced at Charles Rivers, were used. Two groups of mdx were chronically exposed per os either to BIO101 (number of mice n=9) or to BIO103 (number of mice n=9) at a dose of 50 mg/kg*day. A group of C57 mice (number of mice n=5) and a group of mdx mice (number of mice n=15) received the vehicle, i.e. no treatment. The animals of all of the groups were tested for their functional capacity (exertion tolerance test) after two months of treatment. The exertion tolerance test consists of measuring the maximum distance travelled (in-toto activity; FIGS. 1A and 1B). Furthermore, measurements of the maximum absolute isometric strength of the tibialis anterior muscle (in-situ activity; FIGS. 2A and 2B) were made after two months of treatment.
An assessment of muscle fibrosis by histological study is carried out on the tibialis anterior muscle (abbreviated as TA). Histological sections (7 μm) are produced and stained either with haematoxylin eosin (HE) or with Sirius Red (SR).
An anatomopathological analysis of the sections of tibialis anterior muscle stained with SR makes it possible to quantify the fibrotic area. […]

The subject of test [3] is AKT. Nature of the test: AKT phosphorylation in human DMD myocytes (Western Blot). Format: cell-based. The settings on record: 10 μM, 10 minutes to 24 hours, vs untreated control. How it is done: (§1) Human DMD skeletal muscle cells (KM571DMD1OFL Cl1) were differentiated for 5 days then optionally incubated with BIO101 at 10 μM for periods of between 10 minutes and 24 hours.
(§2) A densitometric analysis of results of at least 6 independent Western Blot experiments described the effects of BIO101 on the phosphorylation of AKT (FIG. 8A) and ERK1/2 (FIG. 8B) is shown, *p<0.05 versus the untreated control.

For test [4], the system named is Human DMD skeletal muscle cells (KM571DMD1OFL Cl1). Nature of the test: Cellular respiration (oxygen consumption rate, Seahorse XF Analyzer). Format: cell-based. The conditions noted are these: two days of treatment. How it is done:
Human DMD skeletal muscle cells (KM571DMD1OFL Cl1) were differentiated for 4 days, then incubated in the presence or absence of BIO101 (1 or 5 μM) for 2 days. The oxygen consumption rate, also known as OCR, which reflects the mitochondrial respiration of the cells was measured using a Seahorse XF Analyzer (registered trademark, Agilent).
The basal respiration is measured directly whereas the maximum respiration is measured after adding oligomycin followed by FCCP (FIG. 9A and FIG. 9B). The results are referenced to the OCR of the untreated cells and are shown in the form of means plus or minus the standard error (SEM).

The test system of test [5] is ERK1/2. The test is described as follows: ERK1/2 phosphorylation in human DMD myocytes (Western Blot). It counts as cell-based. The settings on record: 10 μM, 10 minutes to 24 hours, vs untreated control. How it is done: as §1, §2
Test [6] concerns Human DMD skeletal muscle cells (KM571DMD10FL Cl1). Nature of the test: Differentiation of human DMD myoblasts into myotubes. The settings on record: 10 μM, vs untreated control cells. It counts as cell-based. As for the experimental part:
Various parameters have been measured to assess myotube differentiation. Human DMD skeletal muscle cells (KM571DMD10FL Cl1) were differentiated for 3 days then incubated with or without BIO101 at 10 μM. The fusion index and the number of nuclei per myotube were validated as relevant and sensitive indicators of myotube differentiation.
The fusion index illustrated in FIG. 7A represents the percentage of differentiated cell nuclei with respect to the cell total.
The number of nuclei per myotube is illustrated in FIG. 7B, 300 myotubes were counted.
The myotube diameter is illustrated in FIG. 7C, 150 myotubes were measured per condition.
The results in FIGS. 7A,7B and 7C show the mean data measured during three independent experiments, plus or minus the standard error (SEM).

As for `CCSCC(=O)[C@H]1CC[C@@]2(O)C3=CC(=O)[C@@H]4C[C@@H](O)[C@@H](O)C[C@]4(C)C3CC[C@]12C` (stereo partly drawn) [BIO103, (2S,3R,5R,10R,13R,14S,17S)-17-(2-ethylsulfanylacetyl)-2,3,14-trihydroxy-10,13-dimethyl-2,3,4,5,9,11,12,15,16,17-decahydro-1H-cyclopenta[a]phenanthren-6-one], the “expression of myh7 in heart compared to mdx animals receiving the vehicle” value in test [1] is on record as “significantly reduces”. Moreover, the “onset of fibrosis (percentage area corresponding to fibrosis) compared to the control mdx group” value in test [2] is “clearly tends to prevent”.
In the case of `CC(C)(O)CC[C@@H](O)[C@](C)(O)[C@H]1CC[C@@]2(O)C3=CC(=O)[C@@H]4C[C@@H](O)[C@@H](O)C[C@]4(C)[C@H]3CC[C@]12C` [BIO101, 20-hydroxyecdysone], the “p-AKT (phosphorylation of AKT)” value in test [3] is recorded as “significant increase”. Moreover, the “basal respiration increase (OCR) vs untreated cells” value is recorded as 20% in test [4] (1 μM, p<0.01) and 21% in test [4] (5 μM, p<0.001). Further, the “maximum respiration increase (OCR after oligomycin and FCCP) vs untreated cells” value in test [4] (1 μM, p<0.05) is 51%; in test [4] (5 μM, p =0.13), 22%. For the same compound, the “expression of myh7 in heart compared to mdx animals receiving the vehicle” value in test [1] is “significantly reduces”. Further, the “p-ERK1/2 (phosphorylation of ERK1/2)” value in test [5] is “significant increase”. Further, the “increase in the myotube diameter” value in test [6] (p<0.001) stood at 21%. In test [6] (p<0.001), the “increase of the fusion index” value was “+7%”. The “increase in the number of nuclei per myotube” value in test [6] (p<0.01) stood at 34%.

Source of the values: patent publication US11542295B2, “Use of 20-hydroxyecdysone and the derivatives thereof in the treatment of myopathies” (BIOPHYTIS, priority 2017, dated 2023).
